In one data set the test system is caspases 8. Nature of the data set: Caspases 8 activation in HL60 cells (IEDT reagent). It is filed as cell-based, human. Conditions: 48 hours, 1 μM, 0.1 μM and 0.01 μM. From the text: (§1) 7223, using standard commercially available diagnostic kits (Calbiochem, USA). Assay reagents used were DEVD for caspases 3/7, […] for caspases 8, and LEHD for caspases 9. Moreover, colchicine was used as reference compound that induces this activity of caspases.

The subject of a further data set is caspases 9. Nature of the data set: Caspases 9 activation in HL60 cells (LEHD reagent). It counts as cell-based, human. Conditions: 48 hours, 1 μM, 0.1 μM and 0.01 μM.
Text: as §1

The test system of data set [1] is KB3 (epitheloid lung cancer) cell lines. Nature of the data set: Cell growth inhibition (cytotoxicity), MTS assay, KB3 cell line. It counts as cell-based. Here is the method:
Cell growth inhibition was determined by the MTS assay; the number of viable cells were proportional to the extent of formazan production in the presence or absence of drugs. […]
On the technique in general: Tetrazolium dyes change colour on reduction, which living cells bring about.

For data set [2], the system named is A549 (human lung adenocarcinoma epithelial). Nature of the data set: Growth inhibition, MTT colorimetric assay, A549. It counts as cell-based. The following applies: Homo sapiens, A549, 72 h; carcinoma; 3 days with drug; means of six values; unit inferred; read-out: IC50 A549. As to the method: (§2) A549 (human lung adenocarcinoma epithelial), BxPC3 (pancreatic cancer), LoVo (colon cancer), MCF-7 (epithelial breast cancer), PC3 (human prostate cancer), Hs683 (human glioma), T98G (glioblastoma), U373 (human glioblastoma-astrocytoma), U138 MG (human glioma), epithelial-like), SKMEL28 (human melanoma), B16-F10 (mouse melanoma) and RhTP (rhabdomyosarcoma) cell lines were cultured in presence of the drugs for 3 days. The cytotoxic activity is expressed as (IC50). Inhibition of cell proliferation measured by the MTT colorimetric assay. The values reported in Table 4 are means of six distinct values.

For the next data set, the system named is LoVo (colon cancer). Kind of data set: Growth inhibition, MTT colorimetric assay, LoVo. It is filed as cell-based. The following applies: Homo sapiens, LoVo, 72 h; carcinoma; 3 days with drug; means of six values; unit inferred; read-out: IC50 LoVo. Here is the method:
as §2

In data set [3] the test system is PC3 (human prostate cancer). Nature of the data set: Growth inhibition, MTT colorimetric assay, PC3. Conditions: Homo sapiens, 72 h; carcinoma; 3 days with drug; means of six values; unit inferred; read-out: IC50 PC3. It counts as cell-based. As to the method:
as §2, with “Compounds that met the criteria for activity on KB3 cells were further tested for drug growth inhibitory activity in 5 carcinoma, 6 glioma and 3 melanoma cell lines, shown in Table 4. A549” for “A549”, “values. The standard errors are <5% as compared to the mean values.” for “values.”

In another data set the test system is Hs683 (human glioma). Nature of the data set: Growth inhibition, MTT colorimetric assay, HS683. The following applies: Homo sapiens, Hs 683, 72 h; glioma; 3 days with drug; means of six values; unit inferred; read-out: IC50 HS683. It is filed as cell-based. As to the method: as §2
A further data set concerns T98G (glioblastoma). Kind of data set: cells. It is filed as cell-based. Conditions: Homo sapiens, T98G, 72 h; glioma; 3 days with drug; means of six values; unit inferred; read-out: IC50 T98G. Here is the method: as §2
In data set [4] the test system is U373 (human glioblastoma-astrocytoma). Kind of data set: Growth inhibition, MTT colorimetric assay, U373. It is filed as cell-based. Conditions: Homo sapiens, U373 MG, 72 h; glioma; 3 days with drug; means of six values; unit inferred; read-out: IC50 U373. In a few lines:
(§3)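 Reported IC50 values average six determinations, with standard error under 5% relative to the mean. Inhibition was scored by MTT after a 3-day culture with the drugs.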

For another data set, the system named is U138 MG (human glioma). Kind of data set: Growth inhibition, MTT colorimetric assay, U138. It is filed as cell-based. Conditions: Homo sapiens, U138-MG, 72 h; glioma; 3 days with drug; means of six values; unit inferred; read-out: IC50 U138. Put shortly: as §3
In the next data set the test system is RhTP (rhabdomyosarcoma). Nature of the data set: Growth inhibition, MTT colorimetric assay, RhTp. It counts as cell-based. Conditions: 72 h; 3 days with drug; means of six values; unit inferred; read-out: IC50 RhTp. In a few lines: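 Growth inhibition: cells cultured with drug 3 days, then MTT colorimetric readout. Cytotoxic activity given as IC50.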
In data set [5] the test system is orthotopic grafts of human glioblastoma cell lines. Nature of the data set: Orthotopic grafts of human glioblastoma cell lines in brains of nude mice, survival. The following applies: FIG. 1. It is filed as in vivo. As to the method:
Additional in vivo experiments were carried on nude mice. Briefly, orthotopic grafts of human glioblastoma cell lines were implanted into the brains of nude mice according to the general methodology of Branle et al., (2002) Cancer, 95, 641-655) and Lefranc et al., (2004) Clin. Can. Res., 10, 8250-8265. […] Results are shown in FIG. 1, illustrating the comparative activity of the PPAR agonist BPM18,708 and the reference drug Temodar™ (temozolomide) the only FDA approved drug for glioblastoma grade IV.

Data set [6] concerns HT-22, an immortalized mouse hippocampal cell line. Kind of data set: Neuroprotection of HT-22 cells against toxic insults (calcein viability assay). It is filed as cell-based. As to the method:
It is known (P. Aoun, 2003 Eur. J. Pharm. 472:65-71) that Peroxisome proliferator-activated receptors (PPARs) are involved in regulating many metabolic and inflammatory processes. The present invention explores the role of PPAR ligands in protecting neuronal cultures from toxic insults. For that purpose, the new PPAR agonists described in Example 1 were screened for their potential role as neuroprotective compounds. Experiments were performed using HT-22, an immortalized mouse hippocampal cell line, and SK-N-SH, a human neuroblastoma cell line. HT-22 was selected because it expresses PPARγ receptors. Cell viability against glutamate, hydrogen peroxide (H2O2), and serum deprivation insults was determined using a calcein assay. […] Additionally, compounds were protective even when administered simultaneously with glutamate, or for up to 8 h postglutamate insult.
HT-22, an immortalized mouse hippocampal cell line, and SK-N-SH, a human neuroblastoma cell line, were used. HT-22 cells were obtained from David Schubert (Salk Institute, San Diego, Calif.). The HT-22 line was originally selected from HT-4 cells based on glutamate sensitivity. SK-N-SH cells were obtained from ATCC (Manassas, Va.). HT-22 and SK-N-SH cells were grown to confluency in Dulbecco's modified essential medium (DMEM) and RPMI-1640 media, respectively, and supplemented with 10% charcoal/dextran-treated fetal bovine serum (FBS) and […] gentamicin at 37° C. under 95% air/5% CO2. HT-22 cells were plated at a density of 50,000 cells/ml (5000 cells/well), and SK-N-SH cells were plated at a density of 120,000-150,000 cells/ml (12,000-15,000 cells/well) in 96-well plates. In most studies, wells were pretreated with PPAR ligands over a wide dose range at various times prior to being subjected to either glutamate, hydrogen peroxide, or serum deprivation insults. In some studies, the insults were applied prior to the addition of the PPAR ligand.
The following analogues were tested on the HT22 cell line for their neuroprotective effect against glutamate insult and for their anti-inflammatory activity on relevant, models including HT22 cell line.

Usually IC50 stands for the concentration needed to halve the response being measured.

Turning to `Oc1ccc(CN(Cc2ccc(C(F)(F)F)cc2)Cc2ccc(O)c3ncccc23)c2cccnc12` [BPM18,708, 5,5′-(4-(trifluoromethyl)benzylazanediyl)bis(methylene)diquinolin-8-ol], the “activation of caspases 8” value with caspases 8 is on record as “no effect”. The “activation of caspases 9” value in the data set with caspases 9 was “no effect”. The IC50 in [1] (KB3, Table 3A, MTS assay, triplicate, read-out: KB3 IC50) is 1 nM; in [2], 8 nM; with LoVo (colon cancer) it was 10 nM; in data set [3], 66 nM; in the data set with Hs683 (human glioma) it was 10 nM; in the data set with T98G (glioblastoma), 99 nM. For the same compound, the half-maximal inhibitory concentration (IC50) in data set [4] came to 44 nM; in the data set on U138 MG (human glioma) it was 49 nM; in the data set on RhTP (rhabdomyosarcoma), 81 nM. Moreover, the “cytotoxic activity in words” value in data set [1] (KB3 cell line, structure-cytotoxicity discussion) is “most active analogue”. For the same compound, in data set [5], the “in vivo activity (survival) compared with Temodar” value is “at least as active as Temodar™”. The “neuroprotection from H2O2 insult” value in data set [6] is “dose-dependent neuroprotection”. The “neuroprotection from glutamate insult” value in data set [6] is “dose-dependent neuroprotection”.

(Values after patent publication US20110251238A1, “PPAR AGONIST COMPOSITIONS AND METHODS OF USE” (BIOPHARMED, priority 2008, published 2011).)
